Paper PMC10312039 (Journal of Enzyme Inhibition and Medicinal Chemistry, 2023)

What was measured:
[1] = tested on: L. donovani promastigotes; assay: In vitro potency; assay type: cell-based; conditions: Leishmania donovani, 72 h, read-out: IC50 against L. donovani promastigotes
[2] = In vitro preliminary safety assessment: cytotoxicity on THP-1 cells; assay type: cell-based; conditions: human, PMA-treated THP-1 monocytic cells

Row | IC50 [1] [µM] | Compound | CC50 at 72 h [2] [µM]
1 | 9.8 | CCCCCCCC/C=C\CCCCCCCCCCCCOP(=O)([O-])OCC[N+](C)(C)C [Erufosine] | 19.4
2 | 3.5 | CCCCCCCCCCCCCCCCOP(=O)([O-])OCC[N+](C)(C)C [Miltefosine] | –
